# Assay results from ChEMBL document CHEMBL1148788 (J Med Chem, 2007).
# Assays:
# [1] = target: Neuronal acetylcholine receptor; alpha4/beta2 (Rattus norvegicus, UniProt P09483+P12390); assay: Displacement of [3H]epibatidine from rat recombinant alpha-4-beta-2 nAChR in HEK293 cell line; assay type: cell-based; conditions: for pKi: hek293; for Ki: read-out: Ki
# [2] = target: T1, Neuronal acetylcholine receptor; alpha3/beta4 (Rattus norvegicus, UniProt P04757+P12392); assay: Displacement of [3H]epibatidine from recombinant rat alpha-3-beta-4 nAChr in HEK293 cell line; assay type: cell-based; conditions: for pKi: hek293
# T1 sequence (P04757 whole entry): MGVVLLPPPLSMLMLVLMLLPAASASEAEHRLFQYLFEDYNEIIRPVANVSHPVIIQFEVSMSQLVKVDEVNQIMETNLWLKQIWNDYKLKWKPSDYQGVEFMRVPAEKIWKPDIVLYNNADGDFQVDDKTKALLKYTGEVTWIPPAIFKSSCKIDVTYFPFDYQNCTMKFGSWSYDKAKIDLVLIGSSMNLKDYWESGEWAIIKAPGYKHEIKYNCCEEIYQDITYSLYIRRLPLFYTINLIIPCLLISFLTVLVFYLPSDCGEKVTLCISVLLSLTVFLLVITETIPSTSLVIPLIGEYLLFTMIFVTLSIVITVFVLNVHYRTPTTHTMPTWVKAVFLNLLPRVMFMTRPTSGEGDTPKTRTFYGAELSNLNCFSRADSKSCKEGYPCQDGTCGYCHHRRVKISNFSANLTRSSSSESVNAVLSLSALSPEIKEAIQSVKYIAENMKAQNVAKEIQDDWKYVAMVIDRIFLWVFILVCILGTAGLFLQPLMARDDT
# T1 sequence (P12392 whole entry): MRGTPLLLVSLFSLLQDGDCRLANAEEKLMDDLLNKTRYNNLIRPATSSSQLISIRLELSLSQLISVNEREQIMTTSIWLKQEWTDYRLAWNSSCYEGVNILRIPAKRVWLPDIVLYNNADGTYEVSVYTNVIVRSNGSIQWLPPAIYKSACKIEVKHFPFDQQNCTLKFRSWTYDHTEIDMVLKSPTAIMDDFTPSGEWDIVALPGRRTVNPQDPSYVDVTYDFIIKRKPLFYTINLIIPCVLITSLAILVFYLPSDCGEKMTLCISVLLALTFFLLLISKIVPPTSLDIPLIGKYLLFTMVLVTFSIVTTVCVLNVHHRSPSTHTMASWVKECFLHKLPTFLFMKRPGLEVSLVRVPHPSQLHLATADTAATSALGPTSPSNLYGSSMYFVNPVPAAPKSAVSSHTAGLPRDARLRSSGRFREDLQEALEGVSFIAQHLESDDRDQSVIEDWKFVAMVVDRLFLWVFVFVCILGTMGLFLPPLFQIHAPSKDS
# [3] = target: Neuronal acetylcholine receptor; alpha4/beta4 (Rattus norvegicus, UniProt P09483+P12392); assay: Displacement of [3H]epibatidine from recombinant rat alpha-4-beta-4 nAChr in HEK293 cell line; assay type: cell-based; conditions: for pKi: hek293
# Chain of Neuronal acetylcholine receptor; alpha4/beta4 (P09483 whole entry): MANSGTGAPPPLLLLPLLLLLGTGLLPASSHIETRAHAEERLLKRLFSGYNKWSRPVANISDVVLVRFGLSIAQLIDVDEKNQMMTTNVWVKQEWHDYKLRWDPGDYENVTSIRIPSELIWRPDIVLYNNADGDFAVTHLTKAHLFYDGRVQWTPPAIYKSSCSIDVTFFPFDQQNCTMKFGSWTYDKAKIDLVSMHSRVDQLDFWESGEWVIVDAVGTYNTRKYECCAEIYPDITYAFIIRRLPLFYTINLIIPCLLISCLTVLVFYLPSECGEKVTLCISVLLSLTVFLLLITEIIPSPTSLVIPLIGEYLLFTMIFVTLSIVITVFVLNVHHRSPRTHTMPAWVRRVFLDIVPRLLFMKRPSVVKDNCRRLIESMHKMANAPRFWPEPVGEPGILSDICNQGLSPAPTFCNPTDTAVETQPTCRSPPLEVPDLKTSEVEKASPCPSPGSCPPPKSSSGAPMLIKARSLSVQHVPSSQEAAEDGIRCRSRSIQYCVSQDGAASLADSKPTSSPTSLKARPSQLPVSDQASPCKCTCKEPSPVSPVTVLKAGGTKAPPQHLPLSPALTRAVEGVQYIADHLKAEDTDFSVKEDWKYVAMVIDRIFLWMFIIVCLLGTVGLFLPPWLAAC
# Chain of Neuronal acetylcholine receptor; alpha4/beta4 (P12392 whole entry): as the sequence (P12392 whole entry) above
# [4] = target: T2, Neuronal acetylcholine receptor subunit alpha-7 (Homo sapiens, UniProt P36544); assay: Displacement of [3H]methyllycaconitine from human alpha-7 in tsA201 cells coexpressed with 5HT3A receptor; assay type: cell-based
# T2 sequence (P36544 whole entry): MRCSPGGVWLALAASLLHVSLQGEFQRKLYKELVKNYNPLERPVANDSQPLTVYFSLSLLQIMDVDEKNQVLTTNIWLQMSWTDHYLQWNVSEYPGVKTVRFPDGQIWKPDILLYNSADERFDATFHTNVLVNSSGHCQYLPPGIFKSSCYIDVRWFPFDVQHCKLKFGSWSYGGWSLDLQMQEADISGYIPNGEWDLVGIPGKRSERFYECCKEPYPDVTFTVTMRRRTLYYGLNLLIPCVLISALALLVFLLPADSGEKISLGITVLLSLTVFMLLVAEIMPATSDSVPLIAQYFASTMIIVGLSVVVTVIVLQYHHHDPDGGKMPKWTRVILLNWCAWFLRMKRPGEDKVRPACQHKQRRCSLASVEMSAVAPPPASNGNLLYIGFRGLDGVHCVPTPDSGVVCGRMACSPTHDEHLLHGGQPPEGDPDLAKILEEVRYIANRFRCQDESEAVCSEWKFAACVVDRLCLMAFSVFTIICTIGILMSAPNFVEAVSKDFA
# [5] = target: T2, Neuronal acetylcholine receptor subunit alpha-7; assay: Displacement of [3H]methyllycaconitine from alpha7 nAChR in tsA201 cells co-expressed with Ric3; assay type: cell-based
# [6] = target: T3, 5-hydroxytryptamine receptor 3A (Homo sapiens, UniProt P46098); assay: Displacement of [3H]GR65630 from human 5HT3A receptor in HEK293 cells; assay type: cell-based; conditions: for pKi: hek293
# T3 sequence (P46098 whole entry): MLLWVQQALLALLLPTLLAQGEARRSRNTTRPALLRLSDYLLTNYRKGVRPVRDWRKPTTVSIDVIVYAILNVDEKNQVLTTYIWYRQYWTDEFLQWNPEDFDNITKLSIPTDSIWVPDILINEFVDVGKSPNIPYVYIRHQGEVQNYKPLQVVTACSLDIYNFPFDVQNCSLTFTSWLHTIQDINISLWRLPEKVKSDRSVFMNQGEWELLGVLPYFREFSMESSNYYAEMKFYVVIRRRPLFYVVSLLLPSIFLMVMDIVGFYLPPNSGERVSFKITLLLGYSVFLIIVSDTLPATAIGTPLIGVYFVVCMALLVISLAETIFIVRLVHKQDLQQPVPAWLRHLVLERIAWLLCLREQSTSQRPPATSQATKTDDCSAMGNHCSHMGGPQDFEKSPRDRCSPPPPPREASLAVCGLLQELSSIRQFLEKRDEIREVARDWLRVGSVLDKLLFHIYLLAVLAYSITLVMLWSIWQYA
# [7] = target: T2, Neuronal acetylcholine receptor subunit alpha-7; assay: Antagonist activity at human alpha-7 nAChR in tsA201 cells coexpressed with Ric3 by FMP assay; assay type: functional, cell-based
# [8] = target: T1, Neuronal acetylcholine receptor; alpha3/beta4; assay: Antagonist activity at rat alpha3beta4 nAChR expressed in HEK293 cells by FMP assay; assay type: functional, cell-based, Homo sapiens; conditions: for pIC50: hek293
# [9] = target: T3, 5-hydroxytryptamine receptor 3A; assay: Antagonist activity at human 5HT3A receptor expressed in HEK293 cells by FMP assay; assay type: functional, cell-based; conditions: for pIC50: hek293; for IC50: read-out: IC50
# [10] = cells; assay type: functional, cell-based; conditions: Homo sapiens, HEK293
# [11] = target: T4, Glycine receptor subunit alpha-1 (Homo sapiens, UniProt P23415); assay: Antagonist activity at human glycine alpha-1 receptor in HEK293 cells by FMP assay; assay type: functional, cell-based; conditions: for pIC50: hek293
# T4 sequence (P23415 whole entry): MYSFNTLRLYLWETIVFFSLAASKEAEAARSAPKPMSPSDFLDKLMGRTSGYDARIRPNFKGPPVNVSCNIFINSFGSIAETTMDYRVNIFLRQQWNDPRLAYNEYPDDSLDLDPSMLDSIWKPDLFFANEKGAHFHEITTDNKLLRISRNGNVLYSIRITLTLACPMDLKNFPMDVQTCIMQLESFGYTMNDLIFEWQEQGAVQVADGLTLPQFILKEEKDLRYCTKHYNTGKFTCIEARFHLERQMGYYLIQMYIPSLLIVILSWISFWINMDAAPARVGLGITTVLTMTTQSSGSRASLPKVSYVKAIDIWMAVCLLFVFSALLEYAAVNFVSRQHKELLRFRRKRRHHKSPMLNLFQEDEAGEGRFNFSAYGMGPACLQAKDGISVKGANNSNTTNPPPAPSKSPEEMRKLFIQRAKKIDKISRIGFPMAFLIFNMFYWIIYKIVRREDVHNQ
# Chain of Neuronal acetylcholine receptor; alpha4/beta2 (P09483 whole entry): as the sequence (P09483 whole entry) above
# Chain of Neuronal acetylcholine receptor; alpha4/beta2 (P12390 whole entry): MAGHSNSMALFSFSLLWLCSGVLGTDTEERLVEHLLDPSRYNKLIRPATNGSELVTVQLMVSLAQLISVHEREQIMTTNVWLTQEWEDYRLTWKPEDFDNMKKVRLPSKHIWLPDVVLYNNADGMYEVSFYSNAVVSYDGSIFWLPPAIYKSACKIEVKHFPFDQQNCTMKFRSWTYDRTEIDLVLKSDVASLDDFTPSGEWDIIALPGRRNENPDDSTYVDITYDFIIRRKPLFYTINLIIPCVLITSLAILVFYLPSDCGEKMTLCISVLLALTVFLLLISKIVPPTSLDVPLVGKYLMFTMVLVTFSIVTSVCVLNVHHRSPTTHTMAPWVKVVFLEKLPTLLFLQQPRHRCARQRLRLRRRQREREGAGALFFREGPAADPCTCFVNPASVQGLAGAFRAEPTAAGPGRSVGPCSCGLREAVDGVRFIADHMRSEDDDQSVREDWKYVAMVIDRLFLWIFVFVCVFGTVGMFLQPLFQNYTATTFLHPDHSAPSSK
Structure (SMILES),pKi [1],Ki [1] [µM],Ki [2] [µM],pKi [2],Ki [3] [µM],pKi [3],Ki ([4]; read-out: Ki) [µM],Ki ([4]; read-out: pKi (converted)) [µM],Ki ([5]; read-out: Ki) [µM],Ki ([5]; read-out: pKi (converted)) [µM],Ki [6] [µM],IC50 ([7]; read-out: IC50) [µM],IC50 ([7]; read-out: pIC50 (converted)) [µM],pIC50 [8],IC50 ([8]; read-out: IC50) [µM],IC50 [9] [µM],IC50 ([10]; read-out: IC50) [µM],IC50 ([10]; read-out: pIC50 (converted)) [µM],IC50 [11] [µM],pIC50 [11],also measured
C=CC[N+](C)(C)Cc1c2n(c3ccccc13)Cc1c(C[N+](C)(C)CC=C)c3ccccc3n1C2.[Br-].[Br-],< 4,> 100,> 100,< 4,> 100,< 4,4.4,3.98,2.9,3.16,> 100,30,100,< 4,> 100,> 100,> 100,> 100,> 100,< 4,pKi [6]: < 4; pIC50 [9]: < 4
C=CC[N+]12CC[C@@H]3[C@@H]4[C@@H]5[C@@H](OCC=C(C1)[C@@H]5C[C@@H]32)N1c2ccccc2[C@@]23CC[N+]5(CC=C)CC6=CCO[C@H]([C@@H]([C@H]12)[C@H]6C[C@@H]35)N4c1ccccc1.[Br-].[Br-] (stereo partly drawn),< 4,> 100,> 100,< 4,> 100,< 4,0.066,0.0631,0.03,0.0316,100,0.28,0.282,,100,100,> 100,> 100,> 100,< 4,
CC(=O)OCC[N+]12CC[C@@H]3[C@@H]4[C@@H]5[C@@H](OCC=C(C1)[C@@H]5C[C@@H]32)N1c2ccccc2[C@@]23CC[N+]5(CCOC(C)=O)CC6=CCO[C@H]([C@@H]([C@H]12)[C@H]6C[C@@H]35)N4c1ccccc1.[Br-].[Br-] (stereo partly drawn),< 4,> 100,> 100,< 4,> 100,< 4,0.28,0.251,0.31,0.316,> 100,1.6,1.62,< 4,> 100,> 100,> 100,> 100,> 100,< 4,pKi [6]: < 4; pIC50 [9]: < 4
O=[N+]([O-])c1ccc(C[N+]23CCC4[C@@H]5/C(=C\N6c7ccccc7[C@@]78CC[N+]9(Cc%10ccc([N+](=O)[O-])cc%10)CC%10=CCO[C@H]([C@@H]([C@H]67)[C@H]%10C[C@@H]89)N5c5ccccc5)[C@@H](C[C@@H]42)/C(=C\CO)C3)cc1.[Br-].[Br-] (stereo partly drawn),< 4,> 100,> 100,< 4,> 100,< 4,0.11,0.126,0.098,0.1,100,2.5,2.45,< 4,> 100,30,> 100,> 100,> 100,< 4,
COc1ccc(C[N+]23CC[C@@H]4[C@@H]5/C(=C\N6c7ccccc7[C@@]78CC[N+]9(Cc%10ccc(OC)c(OC)c%10)CC%10=CCO[C@H]([C@@H]([C@H]67)[C@H]%10C[C@@H]89)N5c5ccccc5)[C@@H](C[C@@H]42)/C(=C\CO)C3)cc1OC.[Cl-].[Cl-] (stereo partly drawn),< 4,> 100,> 100,< 4,> 100,< 4,0.27,0.251,0.2,0.2,100,2.6,2.63,,100,30,> 100,> 100,> 100,< 4,IC50 ([8]; read-out: pIC50 (converted)): 31.6 µM
COc1ccc(C[N+]23CC[C@@H]4[C@@H]5[C@@H]6[C@@H](OCC=C(C2)[C@@H]6C[C@@H]43)N2c3ccccc3[C@@]34CC[N+]6(Cc7ccc(OC)c(OC)c7)CC7=CCO[C@H]([C@@H]([C@H]23)[C@H]7C[C@@H]46)N5c2ccccc2)cc1OC.[Cl-].[Cl-] (stereo partly drawn),< 4,> 100,> 100,< 4,> 100,< 4,0.13,0.126,0.059,0.0631,28,1.3,1.32,< 4,> 100,30,> 100,> 100,> 100,< 4,
C[N+]12CCC34c5ccccc5N5/C=C6/[C@H]7C[C@H]8[C@@]9(CC[N+]8(C)C/C7=C/CO)c7ccccc7N(/C=C(/[C@@H](C[C@@H]31)/C(=C\CO)C2)[C@H]54)[C@@H]69.[Cl-].[Cl-] (stereo partly drawn) [TOXIFERINE],< 4,> 100,30,,> 100,< 4,1.6,1.58,2.6,2.51,> 100,9.5,9.55,,30,> 100,> 100,> 100,> 100,< 4,pKi [6]: < 4; pIC50 [9]: < 4
